Data on nine compounds can be found in patent US20240025903A1, “Bicyclic Compounds and Uses Thereof for the Treatment of Diseases” (Athira Pharma, Inc., priority 2020, published 2024).

The nature of series [1]: In vitro stability in human plasma. The format is in vitro ADME. The conditions noted are these: 5 μM, 37° C. The method, then: (§1) Bioavailability can be estimated by compound stability when exposed to conditions in the body. As an initial assessment of stability properties in a variety of conditions present in animals, exemplary compounds were tested for stability in a battery of simulated body compartments. Compounds were tested for stability in the following solutions: simulated gastric fluid (SGF: 34.2 mM NaCl, pH 1.2), simulated gastric fluid with the digestive enzyme pepsin (SGF+Enzyme: SGF with 3.2 mg/ml pepsin), simulated intestinal fluid with the mixture of enzymes in porcine pancreatin (SIF+Enzyme: 28.7 mM NaH2PO4, 105.7 mM NaCl, pH 6.8, 10 mg/ml pancreatin), rat plasma, and human plasma.
(§2) Test compounds were incubated at a final concentration of 5 μM in the above solutions at 37° C. with samples removed at the following time points: 0, 1, 2, and 4 hours. Reactions were stopped and prepared for quantification by addition of excess quench solution containing an internal standard (acetonitrile, 200 ng/mL bucetin). Test compound and internal standard in each sample was quantified by LC-MS/MS, and after internal normalization to bucetin, test compound concentration was expressed as a percentage of concentration at the 0-hour time point. Stability in the relevant test solution was then determined by the percent remaining at the 4-hour time point.

A short description of series [2]: In vitro stability in simulated gastric and intestinal fluids. The conditions noted are these: 37° C.; for SGF + Enz (compound remaining after 4 hours): SGF with 3.2 mg/ml pepsin; for SGF + Enz (compound remaining after 4 hours) / SIF (compound remaining after 4 hours): 5 μM; for SGF (compound remaining after 4 hours): simulated gastric fluid pH 1.2, 5 μM; for SIF (compound remaining after 4 hours): simulated intestinal fluid pH 6.8 with 10 mg/ml pancreatin. It is filed as in vitro ADME. The method, then: as §1, §2

Series [3] is described as follows: In vitro stability in rat plasma. The format is in vitro ADME. The conditions noted are these: 5 μM, 37° C. On the procedure: as §1, §2
The nature of series [4]: Turbidimetric solubility assay. It is filed as physicochemical. The settings on record: PBS, 37° C., absorbance 620 nm; for solubility at 2 h: aqueous buffer, kinetic from dmso stock.
Series [5] can be described thus: Parallel artificial membrane permeability assay (PAMPA). The format is in vitro ADME. The conditions noted are these: PBS, room temperature. On the procedure: Bioavailable drugs must permeate the cellular membranes of the lining of the digestive tract. To estimate the penetrability of exemplary compounds, the in vitro parallel artificial membrane permeability assay (PAMPA) was utilized.
Test compounds must have a standard curve in the final read plate to determine partitioned concentration of each drug. A 6-point standard curve was prepared for each compound from 0 to 200 μM in phosphate-buffered saline (PBS).
Test compound solution (300 μL in PBS) was added to the donor (bottom) well of the PAMPA plate in 5 replicates and PBS vehicle (200 μL) was added to the acceptor (top) wells of appropriate wells to match the loading of the donor plate. The bottom and top of the PAMPA plates were then sandwiched together. The PAMPA plates were then incubated at room temperature for 5 hours. After incubation, 150 μL of donor solution was added to a UV compatible plate containing the corresponding standard curve. 150 μL of acceptor well solution was added adjacent to the corresponding standard curve and donor well samples for that compound. The plate was then read using a UV plate reader.
Permeability and membrane retention were then calculated based on the following formulas:
Permeability (cm/s): (Pe)(cm/s)={−ln [1−CA(t)/Ceq]}/[A*(1/VD+1/VA)*t] (equation 1) • where: • A=filter area (0.3 cm^2); • VD=donor well volume (0.3 mL); • VA=acceptor well volume (0.2 mL); • t=incubation time (seconds); • CA(t)=compound concentration in acceptor well at time t; • CD(t)=compound concentration in donor well at time t; and • Ceq=[CD(t)*VD+CA(t)*VA]/(VD+VA).
Membrane Retention (R)=1−[CD(t)*VD+CA(t)*VA]/(C0*VD) (equation 2) • where: • CD(t), VD, CA(t), and VA are as defined for equation 1, and • C0=initial concentration in donor well (200 uM).
A general note: The PAMPA barrier holds no transporters, so it reflects passive diffusion.

In another series the test system is MDCK cells. The series can be described thus: Cell scattering behavior assay. The format is cell-based. The settings on record: 5 ng/mL HGF, 24 hours, normalized particle count vs HGF alone. The gist of the method: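 MDCK cells starved 2 h in serum-free DMEM, then treated 24 h at 37 °C with compounds plus 5 ng/mL HGF. Cells were ethanol-fixed, WGA488-stained and imaged. Scattering was scored as particle count normalized to stained area, with activity taken as a statistical increase in normalized particle count over HGF alone.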

Some results are limits rather than exact numbers.

For the compound `CCC(C)CN1CC2N(C(=O)c3ccc(C(F)(F)F)cc3)CCC(=O)N2[C@@H](C)C1=O` (stereo partly drawn) [Compound 1a], the “Human Plasma (compound remaining after 4 hours)” value in series [1] was “++ (++ indicates 40-79% compound remaining after 4 hours)”. Further, in series [2], the “SGF + Enz (compound remaining after 4 hours)” value is given as “++++ (++++ indicates 100% compound remaining after 4 hours)”, the “SGF (compound remaining after 4 hours)” value is “++++ (++++ indicates 100% compound remaining after 4 hours)” and the “SIF (compound remaining after 4 hours)” value was “++++ (++++ indicates 100% compound remaining after 4 hours)”. The “Rat Plasma (compound remaining after 4 hours)” value in series [3] is listed as “++ (++ indicates 40-79% compound remaining after 4 hours)”. Also, the solubility – broadly, how much of the substance goes into solution per volume – at 2 h in series [4] is > 300 µM. Further, the Papp (commonly a coefficient for how fast a substance crosses the barrier) at 5 h, 200 µM in series [5] was > 2 ×10⁻⁶ cm/s. Also, the “Potency (cell scattering)” value in the series on MDCK cells is recorded as “++++ (++++ indicates maximum potency at or above 0.1 nM)”.

On to `CCC(C)CN1CC2N(C(=O)c3ccc(OC(F)F)cc3)CCC(=O)N2[C@@H](C)C1=O` (stereo partly drawn) [Compound 2a], for which the “Human Plasma (compound remaining after 4 hours)” value in series [1] is given as “++ (++ indicates 40-79% compound remaining after 4 hours)”. Moreover, in series [2], the “SGF + Enz (compound remaining after 4 hours)” value is listed as “+++ (+++ indicates 80-99% compound remaining after 4 hours)”, the “SGF (compound remaining after 4 hours)” value was “++++ (++++ indicates 100% compound remaining after 4 hours)” and the “SIF (compound remaining after 4 hours)” value is reported as “++++ (++++ indicates 100% compound remaining after 4 hours)”. The “Rat Plasma (compound remaining after 4 hours)” value in series [3] is reported as “++ (++ indicates 40-79% compound remaining after 4 hours)”. Further, the solubility at 2 h in series [4] was > 300 µM. Also, the Papp at 5 h, 200 µM in series [5] was < 2 ×10⁻⁶ cm/s. Besides, the “Potency (cell scattering)” value in the series with MDCK cells is “+ (+ indicates maximum potency at or above 100 nM)”.

With `CCC(C)CN1CC2N(Cc3ccc(C(F)(F)F)cc3)CCC(=O)N2[C@@H](C)C1=O` (stereo partly drawn) [Compound 5a], the “Human Plasma (compound remaining after 4 hours)” value in series [1] is given as “++ (++ indicates 40-79% compound remaining after 4 hours)”. Moreover, in series [2], the “SGF + Enz (compound remaining after 4 hours)” value is “+ (+ indicates 20-39% compound remaining after 4 hours)”, the “SGF (compound remaining after 4 hours)” value was “+++ (+++ indicates 80-99% compound remaining after 4 hours)” and the “SIF (compound remaining after 4 hours)” value is listed as “+++ (+++ indicates 80-99% compound remaining after 4 hours)”. Further, the “Rat Plasma (compound remaining after 4 hours)” value in series [3] is recorded as “++ (++ indicates 40-79% compound remaining after 4 hours)”. Further, the solubility at 2 h in series [4] was > 300 µM. In series [5], the Papp at 5 h, 200 µM is < 2 ×10⁻⁶ cm/s. Moreover, the “Potency (cell scattering)” value in the series on MDCK cells is listed as “++++ (++++ indicates maximum potency at or above 0.1 nM)”.

With `CCC(C)CN1CC2N(Cc3ccc(OC(F)F)cc3)CCC(=O)N2[C@@H](C)C1=O` (stereo partly drawn) [Compound 6a], the “Human Plasma (compound remaining after 4 hours)” value in series [1] was “++ (++ indicates 40-79% compound remaining after 4 hours)”. Besides, in series [2], the “SGF + Enz (compound remaining after 4 hours)” value is given as “+ (+ indicates 20-39% compound remaining after 4 hours)”, the “SGF (compound remaining after 4 hours)” value is recorded as “+++ (+++ indicates 80-99% compound remaining after 4 hours)” and the “SIF (compound remaining after 4 hours)” value was “++ (++ indicates 40-79% compound remaining after 4 hours)”. Further, the “Rat Plasma (compound remaining after 4 hours)” value in series [3] is given as “+++ (+++ indicates 80-99% compound remaining after 4 hours)”. In addition, the solubility at 2 h in series [4] was > 300 µM. Besides, the Papp at 5 h, 200 µM in series [5] was < 2 ×10⁻⁶ cm/s. For the same compound, the “Potency (cell scattering)” value in the series with MDCK cells was “+++ (+++ indicates maximum potency at or above 1 nM)”.

With `CCC(C)CN1CC2N(Cc3ccc(O)nc3)CCC(=O)N2[C@@H](C)C1=O` (stereo partly drawn) [Compound 7a], in series [2], the “SGF + Enz (compound remaining after 4 hours)” value is recorded as “+++ (+++ indicates 80-99% compound remaining after 4 hours)”, the “SGF (compound remaining after 4 hours)” value was “++++ (++++ indicates 100% compound remaining after 4 hours)” and the “SIF (compound remaining after 4 hours)” value was “++ (++ indicates 40-79% compound remaining after 4 hours)”. Moreover, the solubility at 2 h in series [4] is > 300 µM. Besides, the Papp at 5 h, 200 µM in series [5] is > 10 ×10⁻⁶ cm/s. For the same compound, the “Potency (cell scattering)” value with MDCK cells is “++ (++ indicates maximum potency at or above 10 nM)”.

As for `CCC(C)CN1CC2N(C(=O)c3ccc(O)cc3)CCC(=O)N2[C@@H](C)C1=O` (stereo partly drawn) [Compound 8a], in series [1], the “Human Plasma (compound remaining after 4 hours)” value is given as “++ (++ indicates 40-79% compound remaining after 4 hours)”. Also, in series [2], the “SGF + Enz (compound remaining after 4 hours)” value was “+++ (+++ indicates 80-99% compound remaining after 4 hours)”, the “SGF (compound remaining after 4 hours)” value was “++++ (++++ indicates 100% compound remaining after 4 hours)” and the “SIF (compound remaining after 4 hours)” value is given as “+++ (+++ indicates 80-99% compound remaining after 4 hours)”. For the same compound, the “Rat Plasma (compound remaining after 4 hours)” value in series [3] is given as “++++ (++++ indicates 100% compound remaining after 4 hours)”. Further, the Solubility entry in series [4] (2 hours) was “++++ (++++ indicates solubility at 300 μM)”. Also, the Permeability entry in series [5] (5 hours) was “+ (+ indicates permeability above 1 × 10^−5 cm/s)”. Besides, in the series on MDCK cells, the “Potency (cell scattering)” value is “+++ (+++ indicates maximum potency at or above 1 nM)”.

As to `CCC(C)CN1CC2N(C(=O)c3ccc(F)cc3)CCC(=O)N2C(C)C1=O` (stereo not drawn) [Compound 11, 1-(4-fluorobenzoyl)-6-methyl-8-(2-methylbutyl)hexahydro-4H-pyrazino[1,2-a]pyrimidine-4,7(6H)-dione], the “Human Plasma (compound remaining after 4 hours)” value in series [1] is “+++ (+++ indicates 80-99% compound remaining after 4 hours)”. Moreover, in series [2], the “SGF + Enz (compound remaining after 4 hours)” value is on record as “+++ (+++ indicates 80-99% compound remaining after 4 hours)”, the “SGF (compound remaining after 4 hours)” value was “+++ (+++ indicates 80-99% compound remaining after 4 hours)” and the “SIF (compound remaining after 4 hours)” value is listed as “++++ (++++ indicates 100% compound remaining after 4 hours)”. The “Rat Plasma (compound remaining after 4 hours)” value in series [3] is reported as “++++ (++++ indicates 100% compound remaining after 4 hours)”. Besides, in series [4], the solubility at 2 h is > 300 µM. Also, in series [5], the Papp at 5 h, 200 µM is > 2 ×10⁻⁶ cm/s. In addition, the “Potency (cell scattering)” value with MDCK cells is listed as “++ (++ indicates maximum potency at or above 10 nM)”.

Turning to `CCC(C)CN1CC2N(C(=O)c3ccc(C(F)(F)F)c(Cl)c3)CCC(=O)N2C(C)C1=O` (stereo not drawn) [Compound 12, 1-(3-chloro-4-(trifluoromethyl)benzoyl)-6-methyl-8-(2-methylbutyl)hexahydro-4H-pyrazino[1,2-a]pyrimidine-4,7(6H)-dione], the “Human Plasma (compound remaining after 4 hours)” value in series [1] was “+++ (+++ indicates 80-99% compound remaining after 4 hours)”. Besides, in series [2], the “SGF + Enz (compound remaining after 4 hours)” value is “+++ (+++ indicates 80-99% compound remaining after 4 hours)”, the “SGF (compound remaining after 4 hours)” value was “+++ (+++ indicates 80-99% compound remaining after 4 hours)” and the “SIF (compound remaining after 4 hours)” value was “++ (++ indicates 40-79% compound remaining after 4 hours)”. In addition, in series [3], the “Rat Plasma (compound remaining after 4 hours)” value was “++++ (++++ indicates 100% compound remaining after 4 hours)”. For the same compound, the solubility at 2 h in series [4] was > 300 µM. In series [5], the Papp at 5 h, 200 µM was < 2 ×10⁻⁶ cm/s. Further, in the series with MDCK cells, the “Potency (cell scattering)” value was “++ (++ indicates maximum potency at or above 10 nM)”.

In the case of `CC1C(=O)N(CC2CCC2)CC2N(C(=O)c3ccc(OC(F)F)cc3)CCC(=O)N12` (stereo not drawn) [Compound 14], in series [1], the “Human Plasma (compound remaining after 4 hours)” value is on record as “+++ (+++ indicates 80-99% compound remaining after 4 hours)”. Moreover, in series [2], the “SGF + Enz (compound remaining after 4 hours)” value was “++ (++ indicates 40-79% compound remaining after 4 hours)”, the “SGF (compound remaining after 4 hours)” value was “++ (++ indicates 40-79% compound remaining after 4 hours)” and the “SIF (compound remaining after 4 hours)” value was “+++ (+++ indicates 80-99% compound remaining after 4 hours)”. The “Rat Plasma (compound remaining after 4 hours)” value in series [3] is given as “+++ (+++ indicates 80-99% compound remaining after 4 hours)”. For the same compound, the solubility at 2 h in series [4] was > 300 µM. Also, the Papp at 5 h, 200 µM in series [5] was > 2 ×10⁻⁶ cm/s.
